Measured values as given in US5952298A, “Cryptophycins” (priority 1995, dated 1999).
Where two headings read alike, the source gives them in different places.

Assays:
[1] = tested on: LoVo (human colon carcinoma); test: Cytotoxicity against LoVo cell line; format: cell-based
[2] = tested on: SKOV3 (human ovarian carcinoma); test: Cytotoxicity against SKOV3 cell line (Table 2); format: cell-based
[3] = tested on: murine leukemia (L1210 or P388), murine solid tumor, human solid tumor and low malignancy fibroblast (LML) cells
[4] = tested on: pancreatic ductal adenocarcinoma #03 (Panc 03, P03); settings: SC P03
[5] = tested on: KB (human nasopharyngeal carcinoma); test: Cytotoxicity against KB cell line; format: cell-based
[6] = tested on: murine and human tumors implanted in mice
Procedure: Gross log kill is defmed as T-C/3.2 Td where T is the median time in days for the tumors of the treated group to reach 750 mg, C is the median time in days for the tumors of the control group to reach 750 mg, and Td is the tumor volume doubling time. […] An activity rating of +++ to ++++, which is indicative of clinical activity, is needed to effect partial or complete regression of 100-300 mg size masses of most transplanted solid tumors of mice.

[7] = tested on: colon adenocarcinoma #38 (Colon 38, C38); settings: for % Body Wt. Loss at Nadir / Cures / T/C: SC C38; for Log Kill: mouse, in vivo
[8] = tested on: colon adenocarcinoma #51 (Colon 51); test: In vivo activity, SC Colon 51 tumor; settings: Exp 1900, 9 IV inj., 67.5 mg/kg TD
[9] = tested on: Mam 16/C (taxol-sensitive mammary #16/C); test: In vivo activity, SC Mam 16/C tumor; settings: Exp 1885, 7 IV inj., 21.3 mg/kg TD
[10] = Exp 1843, 4 IV inj., 28/5 mg/kg TD
[11] = Exp 1825, 11 IV inj., 106 mg/kg TD
[12] = Exp 1769, 15 IV inj., 45 mg/kg TD
[13] = Exp 1887B, 6 IV inj., 30 mg/kg TD
[14] = Exp 1878, 9 IV inj., 82 mg/kg TD
[15] = Exp 1813, 9 IV inj., 27 mg/kg TD
[16] = Exp 1843, 7 IV inj., 23 mg/kg TD

COc1ccc(C[C@H]2NC(=O)/C=C/C[C@@H]([C@H](C)[C@H]3O[C@@H]3c3ccccc3)OC(=O)[C@H](CC(C)C)OC(=O)[C@H](C)CNC2=O)cc1 [Cryptophycin 2]
LoVo IC50 ([1]; Table 1): 0.0002 ng/mL
LoVo IC50 ([1]; Table 2): 0.021 ng/mL
SKOV3 IC50 [2]: 0.18 ng/mL
Differential in Zone Units, Corbett Assay ([3]; 25 μg/disk): > 400 zone units
Type of Cytotoxicity, Corbett Assay ([3]; 25 μg/disk): E/T

COc1ccc(C[C@H]2NC(=O)/C=C/C[C@@H]([C@H](C)/C=C/c3ccccc3)OC(=O)[C@H](CC(C)C)OC(=O)[C@H](C)CNC2=O)cc1Cl [Cryptophycin 3]
% Body Wt. Loss at Nadir [4, 10]: -9%
Cures [4, 10]: 0/5
Log Kill [4, 10]: < 1
T/C [4, 10]: 54%
LoVo IC50 ([1]; Table 1): 0.5 ng/mL
LoVo IC50 ([1]; Table 2): 0.6 ng/mL
SKOV3 IC50 [2]: 2.8 ng/mL
KB IC50 ([5]; Table 1): 0.3 ng/mL
Differential in Zone Units, Corbett Assay ([3]; 25 μg/disk): > 400 zone units
Type of Cytotoxicity, Corbett Assay ([3]; 25 μg/disk): E/T

COc1ccc(C[C@H]2NC(=O)/C=C/C[C@@H]([C@H](C)/C=C/c3ccccc3)OC(=O)[C@H](CC(C)C)OC(=O)[C@H](C)CNC2=O)cc1 [Cryptophycin 4]
LoVo IC50 ([1]; Table 2): 2.5 ng/mL
SKOV3 IC50 [2]: 21 ng/mL
KB IC50 ([5]; Table 1): 1.3 ng/mL
Differential in Zone Units, Corbett Assay ([3]; 20 μg/disk): > 400 zone units
Type of Cytotoxicity, Corbett Assay ([3]; 20 μg/disk): E/T

COC(=O)[C@H](C)CNC(=O)[C@@H](Cc1ccc(OC)c(Cl)c1)NC(=O)/C=C/C[C@H](OC(=O)[C@@H](O)CC(C)C)[C@H](C)[C@H]1O[C@@H]1c1ccccc1 [Cryptophycin 5]
SKOV3 IC50 [2]: 7.4 ng/mL
KB IC50 ([5]; Table 1): 0.02 ng/mL
KB IC50 ([5]; Table 2): 12 ng/mL

COc1ccc(C[C@@H](NC(=O)/C=C/C[C@@H]2O[C@@H](c3ccccc3)[C@H](O)[C@H]2C)C(=O)O)cc1Cl [Cryptophycin 7]
LoVo IC50 ([1]; Table 1): ≥ 480 ng/mL
KB IC50 ([5]; Table 1): ≥ 750 ng/mL

COc1ccc(C[C@H]2NC(=O)/C=C/C[C@@H]([C@H](C)[C@@H](O)[C@@H](Cl)c3ccccc3)OC(=O)[C@H](CC(C)C)OC(=O)[C@H](C)CNC2=O)cc1Cl [Cryptophycin 8]
% Body Wt. Loss at Nadir [4, 11]: -6%
Cures [4, 11]: 0/5
Log Kill [4, 11]: 4.6
T/C [4, 11]: 4%
cures (in words) [6]: some cures
gross log kill activity rating [6]: +++ to ++++
in vivo activity (in words) [6]: active against a broad spectrum of tumors implanted in mice
cause of lethal toxicity observed during testing ([6]; mice): leucopenia
tumor burden T/C (mean tumor burden in treated animals/mean tumor burden untreated animals) ([6]; text summary over the tumors named in the sentence): < 10%
LoVo IC50 ([1]; Table 1): 0.01 ng/mL
LoVo IC50 ([1]; Table 2): 0.0022 ng/mL
% Body Wt. Loss at Nadir [7, 12]: -2%
Cures [7, 12]: 0/5
T/C [7, 12]: > 100%
% Body Wt. Loss at Nadir [7, 13]: -2%
Cures [7, 13]: 1/5
T/C [7, 13]: 0%
Log Kill ([7]; 30 mg/kg): 2.8
Log Kill ([7]; 45 mg/kg): None
% Body Wt. Loss at Nadir [8]: -1%
Cures [8]: 0/5
Log Kill [8]: 1.8
T/C [8]: 7%
SKOV3 IC50 [2]: 0.15 ng/mL
KB IC50 ([5]; Table 1): 0.0002 ng/mL
KB IC50 ([5]; Table 2): 0.01 ng/mL
Differential in Zone Units, Corbett Assay ([3]; 30 μg/disk): > 500 zone units
Type of Cytotoxicity, Corbett Assay ([3]; 30 μg/disk): E/T
% Body Wt. Loss at Nadir [9]: -4.5%
Cures [9]: 0/5
Log Kill [9]: 2.5
T/C [9]: 6%

COc1ccc(C[C@H]2NC(=O)/C=C/C[C@@H]([C@H](C)[C@@H](O)[C@@H](OC)c3ccccc3)OC(=O)[C@H](CC(C)C)OC(=O)[C@H](C)CNC2=O)cc1Cl [Cryptophycin 9]
KB IC50 ([5]; Table 1): 15 ng/mL

COc1ccc(C[C@@H](NC(=O)/C=C/C[C@@H]2O[C@@H](c3ccccc3)[C@H](O)[C@H]2C)C(=O)NC[C@@H](C)C(=O)O)cc1Cl [Cryptophycin 12]
LoVo IC50 ([1]; Table 1): ≥ 100 ng/mL
KB IC50 ([5]; Table 1): ≥ 100 ng/mL
KB IC50 ([5]; Table 2): 18 ng/mL

COc1ccc(C[C@@H](NC(=O)/C=C/C[C@H](O)[C@H](C)/C=C/c2ccccc2)C(=O)NC[C@@H](C)C(=O)O)cc1Cl [Cryptophycin 14]
KB IC50 ([5]; Table 1): 1.8 ng/mL

CC(C)C[C@@H]1OC(=O)[C@H](C)CNC(=O)[C@@H](Cc2ccc(O)c(Cl)c2)NC(=O)/C=C/C[C@@H]([C@H](C)[C@H]2O[C@@H]2c2ccccc2)OC1=O [Cryptophycin 16]
% Body Wt. Loss at Nadir [4, 14]: -1%
Cures [4, 14]: 0/5
Log Kill [4, 14]: None
T/C [4, 14]: 89%
SKOV3 IC50 [2]: 0.64 ng/mL
KB IC50 ([5]; Table 2): 0.08 ng/mL

CC(C)C[C@@H]1OC(=O)[C@H](C)CNC(=O)[C@@H](Cc2ccc(O)c(Cl)c2)NC(=O)/C=C/C[C@@H]([C@H](C)/C=C/c2ccccc2)OC1=O [Cryptophycin 17]
LoVo IC50 ([1]; Table 2): 5.9 ng/mL
SKOV3 IC50 [2]: 11 ng/mL
KB IC50 ([5]; Table 2): 4.7 ng/mL

CC[C@H](C)[C@@H]1OC(=O)[C@H](C)CNC(=O)[C@@H](Cc2ccc(OC)c(Cl)c2)NC(=O)/C=C/C[C@@H]([C@H](C)/C=C/c2ccccc2)OC1=O [Cryptophycin 18]
LoVo IC50 ([1]; Table 2): 4.5 ng/mL
SKOV3 IC50 [2]: 23 ng/mL

COc1ccc(C[C@H]2NC(=O)/C=C/C[C@@H]([C@H](C)/C=C/c3ccccc3)OC(=O)[C@H](C(C)C)OC(=O)[C@H](C)CNC2=O)cc1Cl [Cryptophycin 19]
SKOV3 IC50 [2]: 41 ng/mL
KB IC50 ([5]; Table 2): 9.8 ng/mL

COc1ccc(C[C@H]2NC(=O)/C=C/C[C@@H]([C@H](C)[C@H]3O[C@@H]3c3ccccc3)OC(=O)[C@H](CC(C)C)OC(=O)CCNC2=O)cc1Cl [Cryptophycin 21]
% Body Wt. Loss at Nadir [4, 15]: -11%
Cures [4, 15]: 0/5
Log Kill [4, 15]: None
T/C [4, 15]: 61%
dead (animals) [4, 15]: 1/5
LoVo IC50 ([1]; Table 2): 0.0003 ng/mL
SKOV3 IC50 [2]: 0.029 ng/mL

COc1ccc(C[C@H]2NC(=O)/C=C/C[C@@H]([C@H](C)[C@H]3O[C@@H]3c3ccccc3)OC(=O)[C@H](CC(C)C)OC(=O)CCNC2=O)cc1 [Cryptophycin 24]
LoVo IC50 ([1]; Table 2): 0.095 ng/mL
SKOV3 IC50 [2]: 0.3 ng/mL
KB IC50 ([5]; Table 2): 0.12 ng/mL

COc1ccc(C[C@H]2NC(=O)C[C@@H](C[C@H](O)[C@H](C)/C=C/c3ccccc3)OC(=O)[C@H](CC(C)C)OC(=O)[C@H](C)CNC2=O)cc1Cl [Cryptophycin 26]
LoVo IC50 ([1]; Table 2): 9.8 ng/mL
SKOV3 IC50 [2]: 95 ng/mL
KB IC50 ([5]; Table 2): 19 ng/mL

COc1ccc(C[C@H]2NC(=O)/C=C/C[C@@H](C/C=C/c3ccccc3)OC(=O)[C@H](CC(C)C)OC(=O)[C@H](C)CNC2=O)cc1Cl [Cryptophycin 28]
LoVo IC50 ([1]; Table 2): 0.75 ng/mL
SKOV3 IC50 [2]: 6.1 ng/mL
KB IC50 ([5]; Table 2): 1.5 ng/mL

COc1ccc(C[C@H]2NC(=O)/C=C/C[C@@H]([C@H](C)/C=C/c3ccccc3)OC(=O)[C@H](CC(C)C)OC(=O)CCNC2=O)cc1Cl [Cryptophycin 29]
LoVo IC50 ([1]; Table 2): 0.49 ng/mL
SKOV3 IC50 [2]: 3.4 ng/mL

COc1ccc(C[C@H]2NC(=O)C[C@H](O)C[C@@H]([C@H](C)/C=C/c3ccccc3)OC(=O)[C@H](CC(C)C)OC(=O)[C@H](C)CNC2=O)cc1Cl [Cryptophycin 30]
KB IC50 ([5]; Table 2): 11 ng/mL

COc1c(Cl)cc(C[C@H]2NC(=O)/C=C/C[C@@H]([C@H](C)[C@H]3O[C@@H]3c3ccccc3)OC(=O)[C@H](CC(C)C)OC(=O)[C@H](C)CNC2=O)cc1Cl [Cryptophycin 31]
LoVo IC50 ([1]; Table 2): 0.062 ng/mL
SKOV3 IC50 [2]: 1.9 ng/mL
KB IC50 ([5]; Table 2): 0.53 ng/mL

COc1ccc(CC2NC(=O)CCCC(C(C)C3OC3c3ccccc3)OC(=O)C(CC(C)C)OC(=O)C(C)CNC2=O)cc1Cl (stereo not shown) [Cryptophycin 35]
% Body Wt. Loss at Nadir [4, 16]: -2%
Cures [4, 16]: 0/5
Log Kill [4, 16]: 1.3
T/C [4, 16]: 11%
in vivo activity (in words) [6]: Good in vivo activity

COc1ccc(C[C@H]2NC(=O)CCC[C@@H]([C@H](C)[C@H]3O[C@@H]3c3ccccc3)OC(=O)[C@H](CC(C)C)OC(=O)[C@H](C)CNC2=O)cc1Cl [Cryptophycin 35]
SKOV3 IC50 [2]: 0.092 ng/mL
KB IC50 ([5]; Table 2): 0.055 ng/mL

COc1ccc(C[C@H]2NC(=O)/C=C/C[C@@H](C[C@H]3O[C@@H]3c3ccccc3)OC(=O)[C@H](CC(C)C)OC(=O)[C@H](C)CNC2=O)cc1Cl [Cryptophycin 40]
LoVo IC50 ([1]; Table 2): 1.0 ng/mL
KB IC50 ([5]; Table 2): 9.0 ng/mL

CC[C@H](C)[C@@H]1OC(=O)[C@H](C)CNC(=O)[C@@H](Cc2ccc(OC)c(Cl)c2)NC(=O)/C=C/C[C@@H]([C@H](C)[C@H]2O[C@@H]2c2ccccc2)OC1=O [Cryptophycin 54]
LoVo IC50 ([1]; Table 2): 2.2 ng/mL
SKOV3 IC50 [2]: 2.2 ng/mL
KB IC50 ([5]; Table 2): 0.80 ng/mL
